Patent publication US9782424B2, “Synergistic combination comprising avermectins and a NSAID for tumor inhibition” (Ectin Research AB, priority 2011, dated 2017)

Assays:
Assay type in all cases: cell-based, human
[1] = system: colorectal cell line (Colo205); test: XTT-assay proliferation rate, colorectal cell line Colo205; conditions: for Proliferation rate compared to medium control: Colo205 (Table 4); for Proliferation rate in per cent compared to untreated medium control: Colo205
From the text: Commercially available human tumor cell lines were purchased from […], Borás, Sweden). Cell lines from urinary bladder (UM-UC-3, #CRL-1749), colorectal carcinoma (Colo205, #CCL-222 and HT29, #HTB-38), prostate carcinoma (LNCaP, #CRL-1740) and breast carcinoma (ZR-75-1, #CRL-1500) were purchased and stored in liquid nitrogen. […] Tumor cell lines were handled aseptically using a laminar airflow (LAF) bench (Holten 2448, Ninolab, Sweden) and stored in a liquid nitrogen tank and were initiated in culture as previously described (Falk P. Experimental models of the peritoneal environment: Effects of TGF-beta and Hyaluronan. Göteborg: University of Gothenburg; 2008). Briefly, ampoules of frozen cells were thawed by submerging into a 37° C. water bath for 45 s. […] Culture media was changed two-three times a week. Culture flasks (Cell+, Sarstedt, Nümbrecht, Germany) and culture plates (Falcon/BD, Franklin Lakes, N.J., USA) were used for experimental set-ups. […] Described culture techniques and equipment have been used extensively in the laboratory The proliferation rates of the different human tumor cell lines were studied using a method based on the conversion of a sodium salt (XTT-assay, Sigma) into a stable orange color that could be analyzed in a spectrophotometer. The color change is proportional to the mitochondrial dehydrogenase activity resulting in an effective technique for measuring cell toxicity (Roehm N W, Rodgers […], Glasebrook A L. An improved colorimetric assay for cell proliferation and viability utilizing the tetrazolium salt XTT. […] The color change was measured using a 96-well plate reader with software to calculate the absorbance at 450 nm (V-max/Softmax Pro, Molecular Devices, USA). […] RPMI 1640 and EMEM without phenol red was used during the experiments to reduce the red color background signal in the XTT-assay. […] Untreated wells including culture medium only served as untreated controls. The XTT-assay substrate was added and after gentle agitation using a micro plate shaker, absorbencies at 450 and 650 nm were measured. Levels from medium were subtracted and compared with control wells, using culture medium only.

[2] = system: prostatic cell line (LNCaP); test: XTT-assay proliferation rate, prostatic cell line; conditions: for Proliferation rate compared to untreated control: LNCaP (Table 5)
Method: (§1) Commercially available human tumor cell lines were purchased from ATCC (ATCC/LGC-standards, Borás, Sweden). […] Briefly, ampoules of frozen cells were thawed by submerging into a 37° C. water bath for 45 s. […] With supernatant discarded, cell pellets were further resuspended with 5 ml complete medium into 25 cm^2 cell culture flasks (Cell+, Sarstedt, Nümbrecht, Germany). Tumor cells were cultured until sub-confluence and further sub-cultured with Trypsin (0.5%), EDTA (0.2%) solution (T4174, TE-10x, Sigma) in sterile sodium chloride. Culture media was changed two-three times a week. Culture flasks (Cell+, Sarstedt, Nümbrecht, Germany) and culture plates (Falcon/BD, Franklin Lakes, N.J., USA) were used for experimental set-ups. Cells were regularly monitored using an inverted microscope connected to a digital photo equipment (Axiovert 25 and Axiovision, Zeiss, Carl Zeiss AG, Germany) (FIG. 1). Described culture techniques and equipment have been used extensively in the laboratory
The proliferation rates of the different human tumor cell lines were studied using a method based on the conversion of a sodium salt (XTT-assay, Sigma) into a stable orange color that could be analyzed in a spectrophotometer. […] The color change was measured using a 96-well plate reader with software to calculate the absorbance at 450 nm (V-max/Softmax Pro, Molecular Devices, USA).
Increasing concentrations of substance ivermectin was added with an 8-channel pipette (Titertek, Kem-En-Tec, Taastrup, Denmark) together with sterile pipette tips (Molecular Bioproducts, San Diego, Calif., USA). Cell cultures including active substances were incubated for 24 hours (and 96 hours). Untreated wells including culture medium only served as untreated controls. The XTT-assay substrate was added and after gentle agitation using a micro plate shaker, absorbencies at 450 and 650 nm were measured. Levels from medium were subtracted and compared with control wells, using culture medium only.

[3] = system: colorectal cell line HT29; test: Morphology of cultured tumor cells, HT29
Method: as §1
The effect of Ivermectin, selamectin, abamectin alone, or in combination with ketoconazole, albendazole, ibuprofen, diclofenac and celecoxib on the morphology of cultured human tumor cells was studied. The effect of ivermectin in the presence of increasing concentration of ivermectin was also investigated. […]

22,23-dihydroavermectin B1a+22,23-dihydroavermectin B1b [ivermectin]
Proliferation rate compared to medium control ([1]; IVM 1 μmol/L alone): 101.3 ± 4.9%
Proliferation rate compared to medium control ([1]; IVM 10 μmol/L alone): 97.7 ± 8.5%
Proliferation rate compared to medium control ([1]; IVM 100 μmol/L alone): 69.4 ± 11.5%
Proliferation rate in per cent compared to untreated medium control ([1]; ivermectin 10e-9 mol/L): 97 ± 14%
Proliferation rate in per cent compared to untreated medium control ([1]; ivermectin 10e-8 mol/L): 104 ± 8%
Proliferation rate in per cent compared to untreated medium control ([1]; ivermectin 10e-7 mol/L): 69±9%
Proliferation rate in per cent compared to untreated medium control ([1]; ivermectin 10e-6 mol/L): 42±12%
Proliferation rate in per cent compared to untreated medium control ([1]; ivermectin 10e-5 mol/L): 6±1%
Proliferation rate in per cent compared to untreated medium control ([1]; ivermectin 10e-4 mol/L): 4±1%
Proliferation rate compared to untreated control ([2]; IVM 1 μmol/L alone): 95.4 ± 0.6%
Proliferation rate compared to untreated control ([2]; IVM 10 μmol/L alone): 106.4±2.2%
Proliferation rate compared to untreated control ([2]; IVM 10 μmol/L alone, listed as IVM): 106.4 ± 2.2%
Proliferation rate compared to untreated control ([2]; IVM 100 μmol/L alone): 45.7 ± 2.2%
Proliferation rate in per cent compared to untreated medium control ([2]; LNCaP, ivermectin 10e-9 mol/L): 91 ± 4%
Proliferation rate in per cent compared to untreated medium control ([2]; LNCaP, ivermectin 10e-8 mol/L): 93 ± 5%
Proliferation rate in per cent compared to untreated medium control ([2]; LNCaP, ivermectin 10e-7 mol/L): 94 ± 5%
Proliferation rate in per cent compared to untreated medium control ([2]; LNCaP, ivermectin 10e-6 mol/L): 99 ± 4%
Effect on proliferation rate compared to untreated control ([2]; LNCaP, ivermectin 100 μM alone or in combination): reduced the proliferation rate
Proliferation rate in per cent compared to untreated medium control ([2]; LNCaP, ivermectin 10e-4 mol/L): 8±1%
Effect on morphology ([3]; ivermectin 100 μM): affected
Morphological effects over the concentration series ([3]; ivermectin 10e-4 to 10e-10 mol/L (FIG. 2)): not morphologically affected even at the highest concentration
